From patent US8637683B2, “Macrocyclic lactone derivatives for the treatment of cancer” (Piramal Enterprises Limited, priority 2009, dated 2014)
In brackets after ≈: the same amount, converted by molar mass.

Assays:
Format in all cases: cell-based, human
BXF 1352L = experiment: Monolayer assay (modified propidium iodide), BXF 1352L; settings: Bladder, 4 days of treatment
Text: (§1) Oncotest GmbH, Germany's proprietary tumor cell line panel comprises 40 cell lines. These cell lines were derived from 15 different tumor histotypes, each represented by 1 to 6 different cell lines. Cell lines were established from cancer of the bladder (3), colon (4), head and neck (1), lung (6), breast (3), pancreas (3), prostate (4), ovary (2), kidney (3), liver (1), stomach (1) and the uteri body (1), as well as from melanoma (3), sarcoma (2) and pleuramesothelioma (3). Out of these 40 cell lines, 24 cell lines were established at Oncotest, from patient-derived tumor xenografts. […]
(§2) Stock solutions of the test compounds (330 μg/mL in DMSO) were prepared and stored in small aliquots (200 μL) at −20° C. […] Each concentration was evaluated in triplicate. […]
(§3) Cells were plated in 96-well flat-bottom microtiter plates at a cell density of 4,000 to 10,000 cells/well. […] To measure the viable cell number, the remaining adherent cells were killed and permeabilized by repeated freezing and thawing and PI fluorescence was measured using the Cytofluor 4000 microplate reader (excitation λ=530 nm, emission λ=620 nm), which was a measure for the number of cells which survived treatment. […] IC-values were calculated based on the principle of linear two-point curve fit. […]

CXF 269L = experiment: Monolayer assay (modified propidium iodide), CXF 269L; settings: Colon, 4 days of treatment
Text: (§4) Oncotest GmbH, Germany's proprietary tumor cell line panel comprises 40 cell lines. These cell lines were derived from 15 different tumor histotypes, each represented by 1 to 6 different cell lines. Cell lines were established from cancer of the bladder (3), colon (4), head and neck (1), lung (6), breast (3), pancreas (3), prostate (4), ovary (2), kidney (3), liver (1), stomach (1) and the uteri body (1), as well as from melanoma (3), sarcoma (2) and pleuramesothelioma (3). Out of these 40 cell lines, 24 cell lines were established at Oncotest, from patient-derived tumor xenografts. The other 16 cell lines were either provided by the NCI (Bethesda; MD, USA) or were purchased from ATCC (Rockville, Md., USA) or DSMZ (Braunschweig, Germany).
(§5) Cell lines were routinely passaged once or twice weekly and maintained in culture for upto 20 passages. All cells were grown at 37° C. in a humidified atmosphere with 5% CO2 in RPMI 1640 medium supplemented with 10% (v/v) fetal calf serum (FCS) and 0.1 mg/mL gentamicin (medium and all other components from PAA, Cölbe, Germany). […]
as §2
as §3, with “treatment. Pharmacological effects on cell proliferation and survival were expressed as Test/Control×100 (% T/C) values, with T and C representing the fluorescence read-outs for wells with and without test compound, respectively, i.e. T/C represents the ratio of viable cell numbers following incubation of cell line with/without test compound.” for “treatment.”

HCT 116 = experiment: Monolayer assay (modified propidium iodide), HCT 116; settings: HCT 116, Colon, 4 days of treatment
Text: as §1, §2, §3

CAL 27 = experiment: Monolayer assay (modified propidium iodide), CAL 27; settings: CAL 27, Head and Neck, 4 days of treatment
Text: as §1, §2, §3

LIXF 575L = experiment: Monolayer assay (modified propidium iodide), LIXF 575L; settings: Liver, 4 days of treatment
Text: as §1, §2, §3

LXF 1121L = experiment: Monolayer assay (modified propidium iodide), LXF 1121L; settings: Lung, 4 days of treatment
Text: as §1, §2, §3

LXF 529L = experiment: Monolayer assay (modified propidium iodide), LXF 529L; settings: Lung, 4 days of treatment
Text: as §1, §2, §3

H 460 = experiment: Monolayer assay (modified propidium iodide), H 460; settings: H 460, Lung, 4 days of treatment
Text: as §1, §2, §3

MAXF 401NL = experiment: Monolayer assay (modified propidium iodide), MAXF 401NL; settings: Mammary, 4 days of treatment
Text: as §1, §2, §3

MDA 231 = experiment: Monolayer assay (modified propidium iodide), MDA 231; settings: MDA 231, Mammary, 4 days of treatment
Text: as §4, §5, §2
as §3, with “treatment. Pharmacological effects on cell proliferation and survival were expressed as Test/Control×100 (% T/C) values, with T and C representing the fluorescence read-outs for wells with and without test compound, respectively, i.e. T/C represents the ratio of viable cell numbers following incubation of cell line with/without test compound.” for “treatment.”

MEXF 1341L = experiment: Monolayer assay (modified propidium iodide), MEXF 1341L; settings: Melanoma, 4 days of treatment
Text: as §1, §2, §3

MEXF 462NL = experiment: Monolayer assay (modified propidium iodide), MEXF 462NL; settings: Melanoma, 4 days of treatment
Text: as §1, §2, §3

OVCAR3 = experiment: Monolayer assay (modified propidium iodide), OVCAR3; settings: OVCAR3, Ovarian, 4 days of treatment
Text: as §1, §2, §3

22RV1 = experiment: Monolayer assay (modified propidium iodide), 22RV1; settings: 22RV1, Prostate, 4 days of treatment
Text: as §1, §2, §3

LNCAP = experiment: Monolayer assay (modified propidium iodide), LNCAP; settings: Prostate, 4 days of treatment
Text: as §1, §2, §3

PXF 698L = experiment: Monolayer assay (modified propidium iodide), PXF 698L; settings: Pleuramesothelioma, 4 days of treatment
Text: as §1, §2, §3

RXF 393NL = experiment: Monolayer assay (modified propidium iodide), RXF 393NL; settings: Renal, 4 days of treatment
Text: as §1, §2, §3

SACS2 = experiment: Monolayer assay (modified propidium iodide), SACS2; settings: SACS2, Sarcoma, 4 days of treatment
Text: as §1, §2, §3

## C/C=C/C(O)C(C)/C=C/C(=N\O)C(C)C(O)C(C)C1OC(=O)/C(OC)=C/C(C)=C/C(C)C(O)C(CC)C(O)C(C)C/C(C)=C/C=C/C1OC (stereo not drawn) [Example 7, (3Z,5E,13E,15E)-18-((5Z,6E,10E)-3,9-Dihydroxy-5-(hydroxymino)-4,8-dimethyldodeca-6,10-dien-2-yl)-9-ethyl-8,10-dihydroxy-3,17-dimethoxy-5,7,11,13-tetramethyl oxacyclooctadeca-3,5,13,15-tetraen-2-one]
BXF 1352L
  IC70: 2.0 ng/mL (≈ 2.9 nM)
BXF 1352L; Homo sapiens, 96 h
  IC50: 0.2 ng/mL (≈ 0.29 nM)
CXF 269L
  IC70: 0.2 ng/mL (≈ 0.29 nM)
CXF 269L; Homo sapiens, 96 h
  IC50: < 0.1 ng/mL
HCT 116
  IC70: 5.0 ng/mL (≈ 7.25 nM)
HCT 116; Homo sapiens, 96 h
  IC50: 3 ng/mL (≈ 4.35 nM)
CAL 27
  IC70: 1.0 ng/mL (≈ 1.45 nM)
CAL 27; Homo sapiens, 96 h
  IC50: < 0.1 ng/mL
LIXF 575L; Homo sapiens, 96 h
  IC50: < 0.1 ng/mL
LIXF 575L
  IC70: 2.0 ng/mL (≈ 2.9 nM)
LXF 1121L; Homo sapiens, 96 h
  IC50: 1 ng/mL (≈ 1.45 nM)
LXF 1121L
  IC70: 5.0 ng/mL (≈ 7.25 nM)
LXF 529L; Homo sapiens, 96 h
  IC50: 1 ng/mL (≈ 1.45 nM)
LXF 529L
  IC70: 7.0 ng/mL (≈ 10.1 nM)
H 460
  IC70: 2.0 ng/mL (≈ 2.9 nM)
H 460; Homo sapiens, NCI-H460, 96 h
  IC50: 0.7 ng/mL (≈ 1.01 nM)
MAXF 401NL; Homo sapiens, 96 h
  IC50: 3 ng/mL (≈ 4.35 nM)
MAXF 401NL
  IC70: 8.0 ng/mL (≈ 11.6 nM)
MDA 231; Homo sapiens, MDA-MB-231, 96 h
  IC50: < 0.1 ng/mL
MDA 231
  IC70: <0.1 ng/mL
MEXF 1341L; Homo sapiens, 96 h
  IC50: 0.2 ng/mL (≈ 0.29 nM)
MEXF 1341L
  IC70: 2.0 ng/mL (≈ 2.9 nM)
MEXF 462NL; Homo sapiens, 96 h
  IC50: 3 ng/mL (≈ 4.35 nM)
MEXF 462NL
  IC70: 6.0 ng/mL (≈ 8.7 nM)
OVCAR3; Homo sapiens, OVCAR-3, 96 h
  IC50: 0.4 ng/mL (≈ 0.58 nM)
OVCAR3
  IC70: >1000 ng/mL
22RV1
  IC70: 9.0 ng/mL (≈ 13 nM)
22RV1; Homo sapiens, 96 h
  IC50: 4 ng/mL (≈ 5.8 nM)
LNCAP; Homo sapiens, 96 h
  IC50: 3 ng/mL (≈ 4.35 nM)
LNCAP
  IC70: 15.0 ng/mL (≈ 21.7 nM)
PXF 698L; Homo sapiens, 96 h
  IC50: 0.4 ng/mL (≈ 0.58 nM)
PXF 698L
  IC70: 2.0 ng/mL (≈ 2.9 nM)
RXF 393NL; Homo sapiens, 96 h
  IC50: 7 ng/mL (≈ 10.1 nM)
RXF 393NL
  IC70: 1000 ng/mL (≈ 1450 nM)
SACS2; Homo sapiens, 96 h
  IC50: 5 ng/mL (≈ 7.25 nM)
SACS2
  IC70: >1000 ng/mL
